{"source": "patent US20220313715A1", "about": "“PHARMACEUTICAL COMPOSITION, FOR PREVENTING OR TREATING HEPATIC FIBROSIS, COMPRISING 8-OHDG” (GIL MEDICAL CENTER, priority 2016, published 2022)", "key": {"[1]": {"tested_on": "NOX1", "assay": "Immunofluorescent staining of NOX1 in liver tissue of liver fibrosis animal model", "type": "in vivo, Sprague-Dawley rats", "settings": "BDL rats, 60 mg/kg/day for 3 weeks vs Experimental Group 1, FIG. 3c", "source_text": "(§1) 250 g to 300 g male Sprague-Dawley rats were subject to bile duct ligation (BDL) and atresia of bile duct to prepare liver fibrosis animal models. Six of the animal models were laparotomized, and the proximal and distal bile ducts were ligated and then cut in the middle to separate the bile duct. The animal models were then sutured and allowed to recover to be used for Experimental Group 1. Six animal models treated in the same manner as experimental group 1 were sutured and administered with 8-OHdG in the amount of 60 mg/kg/day for 3 weeks to be used for Experimental Group 2. The animal models of each of the control and experimental groups were sutured and raised for 3 weeks, followed by taking blood and liver tissues therefrom to be used for subsequent experimental procedures."}, "[2]": {"tested_on": "α-SMA", "assay": "Western blot of α-SMA protein in liver tissue of liver fibrosis animal model", "type": "in vivo, Sprague-Dawley rats", "settings": "BDL rats, 60 mg/kg/day for 3 weeks vs Experimental Group 1, GAPDH internal control, FIG. 3b", "source_text": "as §1, with “procedures. […] GAPDH protein was used as an internal control.” for “procedures.”"}, "[3]": {"tested_on": "NOX2", "assay": "qPCR mRNA level of NOX2 in liver tissue of liver fibrosis animal model", "type": "in vivo, Sprague-Dawley rats", "settings": "BDL rats, 60 mg/kg/day for 3 weeks vs Experimental Group 1, FIG. 2f", "source_text": "as §1, with “procedures. […]” for “procedures.”"}, "[4]": {"tested_on": "TIMP-1", "assay": "qPCR mRNA level of TIMP-1 in liver tissue of liver fibrosis animal model", "type": "in vivo, Sprague-Dawley rats", "settings": "BDL rats, 60 mg/kg/day for 3 weeks vs Experimental Group 1, FIG. 2b", "source_text": "as §1, with “procedures. […]” for “procedures.”"}, "[5]": {"tested_on": "NOX1", "assay": "qPCR mRNA level of NOX1 in liver tissue of liver fibrosis animal model", "type": "in vivo, Sprague-Dawley rats", "settings": "BDL rats, 60 mg/kg/day for 3 weeks vs Experimental Group 1, FIG. 2e", "source_text": "as §1, with “procedures. […]” for “procedures.”"}, "[6]": {"molecular_target": "RAC1 (Homo sapiens, UniProt P63000)", "settings": "binds to RAC1-GTP through competition with GTP; leads to inhibition of activity of NOX complex; cited from earlier work"}, "[7]": {"tested_on": "NOX2", "assay": "Immunofluorescent staining of NOX2 in liver tissue of liver fibrosis animal model", "type": "in vivo, Sprague-Dawley rats", "settings": "BDL rats, 60 mg/kg/day for 3 weeks vs Experimental Group 1, FIG. 3d", "source_text": "as §1"}, "[8]": {"tested_on": "Collagen Iα1", "assay": "qPCR mRNA level of collagen in liver tissue of liver fibrosis animal model", "type": "in vivo, Sprague-Dawley rats", "settings": "BDL rats, 60 mg/kg/day for 3 weeks vs Experimental Group 1, FIG. 2c", "source_text": "as §1, with “procedures. […]” for “procedures.”"}, "[9]": {"tested_on": "TGF-β", "assay": "qPCR mRNA level of TGF-β in liver tissue of liver fibrosis animal model", "type": "in vivo, Sprague-Dawley rats", "settings": "BDL rats, 60 mg/kg/day for 3 weeks vs Experimental Group 1, GAPDH internal control, FIG. 2a", "source_text": "as §1, with “procedures. […]” for “procedures.”"}, "[10]": {"tested_on": "collagen", "assay": "Picro Sirius Red staining of collagen in liver tissue of liver fibrosis animal model", "type": "in vivo, Sprague-Dawley rats", "settings": "BDL rats, 60 mg/kg/day for 3 weeks vs Experimental Group 1; Picro Sirius Red stain, ImageJ; FIG. 3a", "source_text": "as §1"}, "[11]": {"tested_on": "α-SMA", "assay": "qPCR mRNA level of α-SMA in liver tissue of liver fibrosis animal model", "type": "in vivo, Sprague-Dawley rats", "settings": "BDL rats, 60 mg/kg/day for 3 weeks vs Experimental Group 1, FIG. 2d", "source_text": "as §1, with “procedures. […]” for “procedures.”"}, "[12]": {"tested_on": "α-SMA", "assay": "Immunofluorescent staining of α-SMA (hepatic stellate cell activity index) in liver tissue of liver fibrosis animal model", "type": "in vivo, Sprague-Dawley rats", "settings": "BDL rats, 60 mg/kg/day for 3 weeks vs Experimental Group 1; immunofluorescent co-staining with NOX1 (FIG. 3c) or NOX2 (FIG. 3d)", "source_text": "as §1"}, "[13]": {"tested_on": "hydroxyproline", "assay": "Hydroxyproline level in liver tissue of bile duct ligation liver fibrosis animal model", "type": "in vivo, Sprague-Dawley rats", "settings": "BDL rats, 8-OHdG 60 mg/kg/day for 3 weeks (Experimental Group 2) vs BDL only (Experimental Group 1); absorbance at 560 nm; FIG. 1", "source_text": "as §1, with “models. […]” for “models.”"}}, "data": [{"smiles": "Nc1nc2c(nc(O)n2[C@H]2C[C@H](O)[C@@H](CO)O2)c(=O)[nH]1", "note": "[8-OHdG, 8-hydroxydeoxyguanosine]", "values": [{"measurement": "protein level of NOX1 in the liver tissue", "setting": "[1]", "result": "reduced"}, {"measurement": "protein level of α-SMA in the liver tissue", "setting": "[2]", "result": "reduced"}, {"measurement": "mRNA level of NOX2 in the liver tissue", "setting": "[3]", "result": "reduced"}, {"measurement": "mRNA level of TIMP-1 in the liver tissue", "setting": "[4]", "result": "reduced"}, {"measurement": "mRNA level of NOX1 in the liver tissue", "setting": "[5]", "result": "reduced"}, {"measurement": "RAC1 activation", "setting": "[6]", "result": "inhibits"}, {"measurement": "protein level of NOX2 in the liver tissue", "setting": "[7]", "result": "reduced"}, {"measurement": "mRNA level of collagen in the liver tissue", "setting": "[8]", "result": "reduced"}, {"measurement": "mRNA level of TGF-β in the liver tissue", "setting": "[9]", "result": "reduced"}, {"measurement": "protein level of collagen in the liver tissue", "setting": "[10]", "result": "reduced"}, {"measurement": "mRNA level of α-SMA in the liver tissue", "setting": "[11]", "result": "reduced"}, {"measurement": "protein level of α-SMA used as a hepatic stellate cell activity index", "setting": "[12]", "result": "reduced"}, {"measurement": "level of hydroxyproline in the liver tissue", "setting": "[13]", "result": "reduced"}]}]}
